Measured values taken from patent US11712444B2, “Compositions and methods of treating neuronal injury” (CHILDREN'S MEDICAL CENTER CORPORATION, priority 2019, dated 2023).
Entries after “also recorded” stand apart in the source; their conditions may differ.

Assays:
[1] = system: metals in the retina, i.e., copper and zinc; experiment: Autometallography (AMG) of metals in the retina after optic nerve crush (ONC); assay type: in vivo, mice; settings: day 1 post ONC; intraocular injection immediately after ONC; TPEN 100 μM, PSP-2 50 μM, PSP-2+Cu 50 μM
Procedure: Metals in the retina, i.e., copper and zinc, were visualized using autometallography. […] To determine whether copper chelators had any effect on this increase, the selective copper chelator PSP-2 was used. Mice were administered 3 μL of DMSO 1% in PBS (control), 100 μM TPEN (10 mM TPEN stock in DMSO diluted in PBS (DMSO 1%)), 50 μM PSP-2 (5 mM PSP-2 stock in DMSO diluted in PBS (DMSO 1%)), or 50 μM PSP-2+Cu (10 mM PSP-2+Cu in de-O2 water diluted in PBS (DMSO 1%) immediately after unilateral optic nerve crush (ONC). In these studies, the normal, intact retina was used as a reference.
(§1) Experiments were performed in 8 to 9-week-old 129S1/SvImJ male mice (Jackson Laboratory, Bar Harbor, Me.). Mice were anesthetized prior to ONC surgery with ketamine and xylazine. The ONC surgery and euthanization of mice were performed as previously described in U.S. Publication No. 2014/079741, the contents of which are hereby incorporated by reference in their entirety. Briefly, a conjunctival incision was made over the dorsal aspect of one eye, which was then gently rotated downward in the orbit. The orbital muscles were slightly separated to expose the optic nerve at its exit from the globe, which was then crushed for 5 seconds with jewelers' forceps (Dumont number 5) near the back of the eye (within 0.5 mm). […]

[2] = cited from earlier work
retinal ganglion cells = experiment: Retinal ganglion cell survival after optic nerve crush (βIII-tubulin positive cells); assay type: in vivo, mice; settings: two weeks post ONC
Procedure: as §1, with “mm). ONC was performed unilaterally for all autometallography experiments and bilaterally for all regeneration experiments.” for “mm).”
(§2) Axon growth was determined by counting GAP-43-positive axons extending 0.5 and 1 mm from the crush site. The cross-sectional width of the nerve was measured at the 0.5 and 1 mm points. The number of axons per millimeter of nerve width was calculated and then averaged for the number of sections analyzed. The estimated number of axons per nerve was then calculated. Retinal ganglion cell survival was measured as the number of βIII-tubulin positive cells per mm^2.

[3] = system: astrocyte-rich primary cortical neurons; experiment: DTDP (dithiodipyridine) toxicity in astrocyte-rich primary cortical neurons; assay type: cell-based; settings: PSP-2 3 μM (FIG. 8)
Procedure: FIG. 8 is a bar plot showing that DTDP (dithiodipyridine) toxicity in astrocyte-rich primary cortical neurons was reversed with PSP-2 (3 μM). DTDP is an agent oxidizing metallothioneins. Oxidation of metallothioneins leads to liberation of metals (zinc and copper) and cell death.

[4] = system: GAP-43-positive axons in the optic nerve; experiment: Axon regeneration after optic nerve crush (GAP-43-positive axons); assay type: in vivo, mice
Procedure: To determine if copper chelation promotes axon regeneration after nerve injury, mice were administered treatments as described in Example 1 after bilateral ONC. […] An antibody against GAP-43 was used to detect growing axons (FIG. 4A-4D).
as §1, with “mm). ONC was performed unilaterally for all autometallography experiments and bilaterally for all regeneration experiments. Treatments were administered unilaterally for all autometallography experiments and bilaterally for all regeneration experiments. Post-ONC treatments were administered by intraocular injection immediately after ONC surgery. Mice were sacrificed with an overdose of anesthesia. Tissue samples were snap-frozen for all autometallography experiments. Mice were perfused with saline followed by 4% paraformaldehyde (PFA) and the tissue samples were post-fixed in PFA for regeneration experiments.” for “mm).”
as §2

HT22 cell culture = experiment: Glutamate toxicity in HT22 cell culture; assay type: cell-based; settings: PSP-2 50 μM (FIG. 9)
From the text: Glutamate toxicity is a model of ferroptotic cell death. Glutamate toxicity and ferroptosis are likely involved in retinal ganglion cell (RGC) death post-optic nerve crush (ONC).

c1ccc(CN(CCN(Cc2ccccn2)Cc2ccccn2)Cc2ccccn2)nc1 [TPEN, N, N, N′, N′-tetrakis(2-pyridylmethyl) ethylenediamine, reference compound]
autometallography (AMG) signal in the retina [1]: reduced the autometallography signal

CP(C)(=S)CP(CP(C)(C)=S)c1cccc2cccc(P(CP(C)(C)=S)CP(C)(C)=S)c12 [naphPS]
dissociation constant, Cu(I) [2]: 0.8 zM

CP(C)(=S)CP(CCP(CP(C)(C)=S)CP(C)(C)=S)CP(C)(C)=S [PSP-2]
survival of retinal ganglion cells (retinal ganglion cells): did not significantly affect survival of retinal ganglion cells; also recorded: did not improve retinal ganglion cell (RGC) survival | DTDP-induced cell death [3]: reversed | axon regeneration, dose dependence ([4]; 2 weeks post ONC, FIG. 7A): improved axon regeneration in a dose-dependent manner | axon regeneration at 0.5 mm distance from the site of ONC ([4]; two weeks post ONC, 0.5 mm, PSP-2 50 μM intraocular): improved axon regeneration | axon regeneration at 1.0 mm distance from the site of ONC ([4]; two weeks post ONC, 1.0 mm, PSP-2 50 μM intraocular): improved axon regeneration | glutamate-induced cell death (HT22 cell culture): partially alleviated | autometallography (AMG) signal in the retina [1]: reduced the autometallography signal; also recorded: reduced metal autometallography (AMG) signal

CP(C)(=S)CP(CP(C)(C)=S)c1ccccc1P(CP(C)(C)=S)CP(C)(C)=S [PhenPS]
dissociation constant, Cu(I) [2]: about 0.6 zM
